Reference: patent US12589229B2, “Macroporous solid hard microneedles with embedded particulate drugs” (priority 2021, dated 2026)
Structures can show the parent of a compound that is named as a salt. One block for each compound: values may come before it.

Experiments:
[1] = In vitro dye release from dye-loaded microneedle patch into parafilm-covered gelatin; format: physicochemical; settings: 10% gelatin covered with parafilm
Description: In order to show in vitro release of the microneedles visually, a resin/dye paste was prepared. A biocompatible resin (Dental SG) from Formlabs (Somerville, MA, USA) and sulforhodamine B (SKU: 230162-5G, MilliporeSigma; Burlington, MA, USA) as dye were used. Due to the small size of the microneedles, the dye particles were ground into finer particles with smaller sizes. The encapsulation of unground and ground dye in microneedles was compared by preparing microneedles with both unground and ground sulforhodamine B particles. The unground and ground particles of the dye are shown in FIGS. 35a and 35b, respectively, and the size distribution of the unground and ground dye is shown in FIG. 35c. On average, the unground and ground dye particles had particle sizes of about 50 micrometers and 6 micrometers, respectively. […] A solid acrylic ring was added around the substrate so that the microneedle patch could be held and applied easily (see FIG. 35g). The in vitro dye release experiment is shown schematically in FIG. 35h. A 10% gelatin (gelatin from porcine skin, SKU: G2500-1KG from Millipore Sigma) solution was prepared as a model tissue and was poured in a petri dish. Then, it was placed in the refrigerator for 20 minutes to further solidify. A thin layer of parafilm (Parafilm ° M, Amcor; Zurich, Switzerland) was then used as a skin model to cover the gelatin solution in the petri dish.

[2] = FTIR spectroscopy of drug encapsulated in resin microneedles (changes during fabrication); format: physicochemical; settings: drug encapsulated in cured resin microneedle vs powder
Description: FTIR spectroscopy was used to evaluate possible changes in the encapsulated drugs during the fabrication process. A Nicolet 6700 (ThermoScientific™; Waltham, MA, USA) with a Smart™ iTX ATR accessory having a diamond crystal was used. […] In FTIR, an increase in the peak intensity usually reflects an increase in the amount (per unit volume) of the functional group associated with the molecular bond, whereas a shift in peak position usually reflects a change in the hybridization state or electron distribution in the molecular bond. […] The peaks at 1721 cm^−1 and 3400 cm^−1 are assigned to the stretching vibrations of C═O and O—H, respectively.

[3] = test system: CD20+ cells; assay: In vitro whole blood assay with RTX-loaded microneedle patches, flow cytometry; format: cell-based, human
Description: To evaluate the effectiveness of the treatment being delivered through microneedles an in vitro model, a whole blood assay was performed using Rituximab (RTX) as the drug. Rituximab is a chimeric monoclonal antibody against the protein CD20, which is primarily found on the surface of immune system B cells. When it binds to this protein it triggers cell death via Complement-Dependent Cytotoxicity (CDC). RTX is a good model to evaluate the mAb delivery mechanism mainly because of its clear pharmacodynamics outcome, the depletion of CD20+B-Cell in whole blood. Microneedle patches with five different amounts of RTX and a constant polymer-to-drug ratio were incubated in freshly collected human blood in a 24-well plate. Flow cytometry was used to quantify CD20+ and CD19+ cells in each well. […] CD20+ cells are present in samples (a) through (c) on the left but absent from samples (d) through (f) on the right. The conditions are as follows: (a) Buffy coat and serum without microneedle (MN) exposure and prior to incubation; (b) Blood without MN exposure and after 4 h incubation; (c) Blood with exposure to an inert MN after incubation; (d) Blood after incubation with one MN (20 μg RTX); (e) blood after incubation with five MNs (100 μg RTX); and (f) blood after incubation with 200 MNs (4 mg RTX). […]

[4] = test system: circulating B cells; assay: In vivo primate study, rituximab IV versus microneedle transdermal delivery, circulating B cells by flow cytometry; set-up: species or system African green monkeys; settings: IV dosing, first week
Description: An in vivo primate study was performed to compare the systemic pharmacodynamic effect of rituximab (RTX) following intravenous (IV) delivery versus microneedle-mediated, transdermal (TD) delivery in African green monkeys. […] The pharmacodynamic effect was quantified by the measurement of circulating B cells by flow cytometry (all these graphs are generated by flow cytometry), employing rituximab as a tool compound to assess the ability of a novel microneedle formulation and delivery technology to achieve systemic bioavailability of macromolecules (e.g. monoclonal antibodies) following transdermal delivery. […] The depletion over time for the two patches is shown in FIG. 29 for 0, 1, 7, 14 and 21 days.

release of the dye into the gelatin solution [1]: visible release
Compound: CCN(CC)c1ccc2c(-c3ccc(S(=O)(=O)O)cc3S(=O)(=O)[O-])c3ccc(=[N+](CC)CC)cc-3oc2c1 [sulforhodamine B]

Compound: CCN(CC)CC(=O)Nc1c(C)cccc1C [lidocaine, lidocaine hydrochloride monohydrate]
chemical structure during the fabrication process (FTIR) [2]: remained unchanged

chemical structure during the fabrication process (FTIR) [2]: remained unchanged
Compound: CC(C)Cc1ccc(C(C)C(=O)[O-])cc1.[Na+] (centres unmarked) [ibuprofen, ibuprofen sodium salt]

Compound: Rituximab
activity of RTX after completion of the microneedle patch manufacturing process [3]: preserved | B-cell depletion in blood [4]: most significant B-cell depletion
